Data reported in patent US20250084056A1, “SUBSTITUTED OXOISOINDOLINYL PIPERIDINE-2,6-DIONE COMPOUNDS” (BRISTOL-MYERS SQUIBB COMPANY, priority 2023, published 2025).

Columns and labels:
Format in all cases: cell-based
Phospho-Rb (Ser807/811) = assay: Phospho-Retinoblastoma (pRB) Cellular Assay; details: Homo sapiens, OVCAR-3, NIH OVCAR3 cells, 24 hours; for IC50: concentration giving 50% response; for Emax: maximum response, reference compound at 10 μM = 100%, read-out: pRB Ymax
Method in brief: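 Phospho-Rb (Ser807/811) kit read-out on EnVision after lysis (≥4 h, room temperature, dark) of OVCAR3 cells exposed to compound dilutions for 24 h. IC50 and maximum response Ymax are relative to a 10 μM reference compound defining 100%.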

GSPT1 = GSPT1 (Homo sapiens, UniProt P15170+Q96SW2); assay: GSPT1 Cellular Degradation Assay (DF15-GSPT1-ePL); design: expressed in transfected cells; details: DF15-GSPT1-ePL cells, 20 hours
GSPT1, sequence (P15170 whole entry, the tested form may be a part): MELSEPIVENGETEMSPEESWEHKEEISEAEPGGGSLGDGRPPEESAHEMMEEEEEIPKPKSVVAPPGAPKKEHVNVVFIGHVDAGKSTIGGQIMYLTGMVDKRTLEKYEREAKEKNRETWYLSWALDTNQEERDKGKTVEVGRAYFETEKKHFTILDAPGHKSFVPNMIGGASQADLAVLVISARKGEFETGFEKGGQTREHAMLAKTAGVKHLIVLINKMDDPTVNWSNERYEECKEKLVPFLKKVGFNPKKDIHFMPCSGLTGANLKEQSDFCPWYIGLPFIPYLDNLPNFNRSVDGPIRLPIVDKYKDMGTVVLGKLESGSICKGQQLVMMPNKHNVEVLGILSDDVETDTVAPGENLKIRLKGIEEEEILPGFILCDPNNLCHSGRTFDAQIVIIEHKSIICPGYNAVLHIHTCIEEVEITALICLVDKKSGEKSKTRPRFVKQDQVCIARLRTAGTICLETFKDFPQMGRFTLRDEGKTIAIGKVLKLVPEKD
GSPT1, sequence (Q96SW2 whole entry, the tested form may be a part): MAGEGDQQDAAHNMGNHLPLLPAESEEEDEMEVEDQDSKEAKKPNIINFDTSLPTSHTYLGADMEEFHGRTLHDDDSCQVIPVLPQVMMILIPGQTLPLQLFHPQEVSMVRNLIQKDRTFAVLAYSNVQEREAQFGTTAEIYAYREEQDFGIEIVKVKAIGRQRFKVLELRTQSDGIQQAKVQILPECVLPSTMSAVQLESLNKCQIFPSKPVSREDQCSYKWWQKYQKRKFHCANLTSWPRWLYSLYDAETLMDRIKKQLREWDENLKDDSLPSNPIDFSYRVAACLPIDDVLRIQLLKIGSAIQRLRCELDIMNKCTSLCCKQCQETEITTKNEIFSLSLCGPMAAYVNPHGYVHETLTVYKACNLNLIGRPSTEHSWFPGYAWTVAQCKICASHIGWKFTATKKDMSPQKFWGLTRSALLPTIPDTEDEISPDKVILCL
GSPT1, sequence (Q16531 whole entry partner, the tested form may be a part): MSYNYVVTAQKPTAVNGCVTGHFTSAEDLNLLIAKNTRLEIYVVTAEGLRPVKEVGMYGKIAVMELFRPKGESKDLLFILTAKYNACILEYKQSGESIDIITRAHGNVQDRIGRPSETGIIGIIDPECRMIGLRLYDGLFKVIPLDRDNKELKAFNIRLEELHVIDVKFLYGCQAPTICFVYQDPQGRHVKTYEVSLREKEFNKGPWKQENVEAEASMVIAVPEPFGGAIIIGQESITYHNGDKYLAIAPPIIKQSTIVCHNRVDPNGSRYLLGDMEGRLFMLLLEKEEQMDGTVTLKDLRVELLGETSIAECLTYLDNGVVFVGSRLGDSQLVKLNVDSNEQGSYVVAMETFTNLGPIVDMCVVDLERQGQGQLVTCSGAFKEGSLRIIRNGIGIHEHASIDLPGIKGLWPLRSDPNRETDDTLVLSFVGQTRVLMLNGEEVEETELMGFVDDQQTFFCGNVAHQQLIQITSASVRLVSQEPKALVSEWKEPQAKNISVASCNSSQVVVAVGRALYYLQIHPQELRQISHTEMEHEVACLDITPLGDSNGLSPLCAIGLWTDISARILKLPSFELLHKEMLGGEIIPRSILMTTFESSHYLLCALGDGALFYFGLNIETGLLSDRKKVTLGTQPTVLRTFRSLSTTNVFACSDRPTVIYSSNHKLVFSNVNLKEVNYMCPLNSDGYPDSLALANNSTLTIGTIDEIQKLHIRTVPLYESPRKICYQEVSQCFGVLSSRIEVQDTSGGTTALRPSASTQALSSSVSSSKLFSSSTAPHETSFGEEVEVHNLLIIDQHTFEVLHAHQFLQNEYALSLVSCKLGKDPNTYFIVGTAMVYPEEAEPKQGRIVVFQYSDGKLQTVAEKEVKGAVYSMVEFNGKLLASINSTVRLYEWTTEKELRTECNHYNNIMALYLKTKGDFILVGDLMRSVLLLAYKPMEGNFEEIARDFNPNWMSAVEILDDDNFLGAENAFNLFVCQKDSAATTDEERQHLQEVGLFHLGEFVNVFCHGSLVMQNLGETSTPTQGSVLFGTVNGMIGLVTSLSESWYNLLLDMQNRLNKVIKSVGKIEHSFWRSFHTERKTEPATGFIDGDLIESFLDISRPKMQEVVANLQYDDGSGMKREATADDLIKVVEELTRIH
Method in brief: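 DC50 and Dmax were derived from chemiluminescence, with 75% response set by the reference compound at […]. Readout was ePL enzyme-fragment complementation in a DF15 line expressing chimeric GSPT1. Cells were exposed to compound for 20 h at 37 °C in RPMI 1640 with 10% FBS, cooled 30 min, then lysed with substrate for 60 min.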

Cyclin E1 = Cyclin E1 (Homo sapiens, UniProt P24864+Q96SW2); assay: Cyclin E1 Cellular Degradation Assay (MSD); design: endogenous in cells; host or cells: OVCAR3; details: for DC50 / Dmax: Cyclin E1 cellular degradation; for Dmax: maximum degradation; for Ratio of GSPT1 DC50/Cyclin E1 DC50: selectivity for degradation of Cyclin E1 over GSPT1
Cyclin E1, sequence (P24864 whole entry): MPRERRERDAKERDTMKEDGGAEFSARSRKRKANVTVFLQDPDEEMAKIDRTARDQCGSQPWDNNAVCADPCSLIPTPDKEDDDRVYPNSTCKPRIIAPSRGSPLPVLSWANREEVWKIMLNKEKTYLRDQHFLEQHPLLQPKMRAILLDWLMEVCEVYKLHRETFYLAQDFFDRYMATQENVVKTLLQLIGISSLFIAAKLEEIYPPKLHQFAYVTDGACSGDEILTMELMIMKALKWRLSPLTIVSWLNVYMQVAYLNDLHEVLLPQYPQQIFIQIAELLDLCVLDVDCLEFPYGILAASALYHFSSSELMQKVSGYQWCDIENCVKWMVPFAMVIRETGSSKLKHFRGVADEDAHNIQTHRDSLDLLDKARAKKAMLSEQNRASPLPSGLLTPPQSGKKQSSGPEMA
Cyclin E1, sequence (Q96SW2 whole entry): as the sequence (Q96SW2 whole entry, the tested form may be a part) above
Cyclin E1, sequence (Q16531 whole entry partner): as the sequence (Q16531 whole entry partner, the tested form may be a part) above
Method in brief: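 Cyclin E1 remaining after 24 h compound exposure of OVCAR3 cells was quantified in lysates by electrochemiluminescent MSD sandwich assay. DC50 (50% response concentration) and Dmax (maximum response) were calculated, with 110% response set by a reference compound at […].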

Compound	IC50 (Phospho-Rb (Ser807/811))	Emax (Phospho-Rb (Ser807/811))	DC50 (GSPT1)	Dmax (GSPT1)	DC50 (Cyclin E1)	Dmax (Cyclin E1)	Ratio of GSPT1 DC50/Cyclin E1 DC50 (Cyclin E1)
COc1c(COC(=O)Nc2ccc(Oc3ccc(F)cc3F)cc2C)ccc2c1C(=O)N(C1CCC(=O)NC1=O)C2 (stereo not drawn) [Example 42, [2-(2,6-dioxopiperidin-3-yl)-4-methoxy-3-oxo-2,3-dihydro-1H-isoindol-5-yl]methyl N-[4-(2,4-difluorophenoxy)-2-methylphenyl]carbamate]	132 nM	110%	> 14000 nM	20%	96 nM	106%	>146
COc1c(COC(=O)Nc2ccc(Oc3cc(F)c(F)cc3F)cc2F)ccc2c1C(=O)N(C1CCC(=O)NC1=O)C2 (stereo not drawn) [Example 43, [2-(2,6-dioxopiperidin-3-yl)-4-methoxy-3-oxo-2,3-dihydro-1H-isoindol-5-yl]methyl N-[2-fluoro-4-(2,4,5-trifluorophenoxy)phenyl]carbamate]	131 nM	121%	> 14000 nM	33%	165 nM	111%	>85
COc1c(COC(=O)Nc2ccc(Oc3cc(F)c(F)cc3F)cc2)ccc2c1C(=O)N(C1CCC(=O)NC1=O)C2 (stereo not drawn) [Example 44, [2-(2,6-dioxopiperidin-3-yl)-4-methoxy-3-oxo-2,3-dihydro-1H-isoindol-5-yl]methyl N-[4-(2,4,5-trifluorophenoxy)phenyl]carbamate]	109 nM	111%	> 14000 nM	42%	273 nM	111%	>51
COc1c(COC(=O)Nc2ccc(Oc3cc(F)c(F)cc3F)cc2C)ccc2c1C(=O)N(C1CCC(=O)NC1=O)C2 (stereo not drawn) [Example 45, [2-(2,6-dioxopiperidin-3-yl)-4-methoxy-3-oxo-2,3-dihydro-1H-isoindol-5-yl]methyl N-[2-methyl-4-(2,4,5-trifluorophenoxy)phenyl]carbamate]	112 nM	116%	> 14000 nM	38%	129 nM	112%	>108
COc1c(COC(=O)Nc2ccc(Oc3ccc(F)c(F)c3)cc2Cl)ccc2c1C(=O)N(C1CCC(=O)NC1=O)C2 (stereo not drawn) [Example 46, [2-(2,6-dioxopiperidin-3-yl)-4-methoxy-3-oxo-2,3-dihydro-1H-isoindol-5-yl]methyl N-[2-chloro-4-(3,4-difluorophenoxy)phenyl]carbamate]	376 nM	102%	> 14000 nM	42%	357 nM	105%	>39
COc1cc(Oc2ccc(F)c(F)c2)ccc1NC(=O)OCc1ccc2c(c1OC)C(=O)N(C1CCC(=O)NC1=O)C2 (stereo not drawn) [Example 47, [2-(2,6-dioxopiperidin-3-yl)-4-methoxy-3-oxo-2,3-dihydro-1H-isoindol-5-yl]methyl N-[4-(3,4-difluorophenoxy)-2-methoxyphenyl]carbamate]	361 nM	107%	> 14000 nM	20%	320 nM	101%	>44
COc1cc(Oc2cccc(F)c2)ccc1NC(=O)OCc1ccc2c(c1OC)C(=O)N(C1CCC(=O)NC1=O)C2 (stereo not drawn) [Example 48, [2-(2,6-dioxopiperidin-3-yl)-4-methoxy-3-oxo-2,3-dihydro-1H-isoindol-5-yl]methyl N-[4-(3-fluorophenoxy)-2-methoxyphenyl]carbamate]	69 nM	108%	> 14000 nM	46%	139 nM	111%	>101
COc1cc(Oc2ccc(F)cc2F)ccc1NC(=O)OCc1ccc2c(c1OC)C(=O)N(C1CCC(=O)NC1=O)C2 (stereo not drawn) [Example 49, [2-(2,6-dioxopiperidin-3-yl)-4-methoxy-3-oxo-2,3-dihydro-1H-isoindol-5-yl]methyl N-[4-(2,4-difluorophenoxy)-2-methoxyphenyl]carbamate]	171 nM	116%	> 14000 nM	24%	77 nM	106%	>181
COc1cc(Oc2ccc(F)cc2OC)ccc1NC(=O)OCc1ccc2c(c1OC)C(=O)N(C1CCC(=O)NC1=O)C2 (stereo not drawn) [Example 50, [2-(2,6-dioxopiperidin-3-yl)-4-methoxy-3-oxo-2,3-dihydro-1H-isoindol-5-yl]methyl N-[4-(4-fluoro-2-methoxyphenoxy)-2-methoxyphenyl]carbamate]	2080 nM	77%	> 14000 nM	25%	463 nM	77%	>30
COc1c(COC(=O)Nc2ccc(Oc3ccc(F)cc3)cc2C)ccc2c1C(=O)N(C1CCC(=O)NC1=O)C2 (stereo not drawn) [Example 51, [2-(2,6-dioxopiperidin-3-yl)-4-methoxy-3-oxo-2,3-dihydro-1H-isoindol-5-yl]methyl N-[4-(4-fluorophenoxy)-2-methylphenyl]carbamate]	188 nM	109%	> 14000 nM	16%	363 nM	106%	>39
CCOc1c(COC(=O)Nc2ccc(Oc3ccccc3)cc2)ccc2c1C(=O)N(C1CCC(=O)NC1=O)C2 (stereo not drawn) [Example 52, [2-(2,6-dioxopiperidin-3-yl)-4-ethoxy-3-oxo-2,3-dihydro-1H-isoindol-5-yl]methyl N-(4-phenoxyphenyl)carbamate]	81 nM	111%	> 14000 nM	13%	134 nM	107%	>105
CCOc1c(COC(=O)Nc2ccc(Oc3ccc(F)c(F)c3)cc2)ccc2c1C(=O)N(C1CCC(=O)NC1=O)C2 (stereo not drawn) [Example 53, [2-(2,6-dioxopiperidin-3-yl)-4-ethoxy-3-oxo-2,3-dihydro-1H-isoindol-5-yl]methyl N-[4-(3,4-difluorophenoxy)phenyl]carbamate]	86 nM	99%	> 14000 nM	37%	176 nM	109%	>80
CCOc1c(COC(=O)Nc2ccc(Oc3cccc(Cl)c3)cc2)ccc2c1C(=O)N(C1CCC(=O)NC1=O)C2 (stereo not drawn) [Example 54, [2-(2,6-dioxopiperidin-3-yl)-4-ethoxy-3-oxo-2,3-dihydro-1H-isoindol-5-yl]methyl N-[4-(3-chlorophenoxy)phenyl]carbamate]	624 nM	102%	> 14000 nM	22%	58 nM	116%	>241
CCOc1c(COC(=O)Nc2ccc(Oc3cccc(F)c3)cc2)ccc2c1C(=O)N(C1CCC(=O)NC1=O)C2 (stereo not drawn) [Example 55, [2-(2,6-dioxopiperidin-3-yl)-4-ethoxy-3-oxo-2,3-dihydro-1H-isoindol-5-yl]methyl N-[4-(3-fluorophenoxy)phenyl]carbamate]	185 nM	114%	> 14000 nM	21%	141 nM	108%	>99
CC(C)Oc1c(COC(=O)Nc2ccc(Oc3ccc(F)c(F)c3)cc2)ccc2c1C(=O)N(C1CCC(=O)NC1=O)C2 (stereo not drawn) [Example 56, [2-(2,6-dioxopiperidin-3-yl)-3-oxo-4-(propan-2-yloxy)-2,3-dihydro-1H-isoindol-5-yl]methyl N-[4-(3,4-difluorophenoxy)phenyl]carbamate]	113 nM	127%	> 14000 nM	19%	159 nM	106%	>88
CC(C)Oc1c(COC(=O)Nc2ccc(Oc3ccccc3)cc2)ccc2c1C(=O)N(C1CCC(=O)NC1=O)C2 (stereo not drawn) [Example 57, [2-(2,6-dioxopiperidin-3-yl)-3-oxo-4-(propan-2-yloxy)-2,3-dihydro-1H-isoindol-5-yl]methyl N-(4-phenoxyphenyl)carbamate]	212 nM	114%	> 14000 nM	36%	128 nM	102%	>109
CC(C)Oc1c(COC(=O)Nc2ccc(Oc3cccc(Cl)c3)cc2)ccc2c1C(=O)N(C1CCC(=O)NC1=O)C2 (stereo not drawn) [Example 58, [2-(2,6-dioxopiperidin-3-yl)-3-oxo-4-(propan-2-yloxy)-2,3-dihydro-1H-isoindol-5-yl]methyl N-[4-(3-chlorophenoxy)phenyl]carbamate]	298 nM	109%	> 14000 nM	48%	139 nM	104%	>100
CC(C)Oc1c(COC(=O)Nc2ccc(Oc3ccc(F)cc3)cc2)ccc2c1C(=O)N(C1CCC(=O)NC1=O)C2 (stereo not drawn) [Example 59, [2-(2,6-dioxopiperidin-3-yl)-3-oxo-4-(propan-2-yloxy)-2,3-dihydro-1H-isoindol-5-yl]methyl N-[4-(4-fluorophenoxy)phenyl]carbamate]	175 nM	113%	> 14000 nM	48%	131 nM	104%	>107
